Measurements taken from patent US8653026B2, “Treatment of type 2 diabetes with FTY720” (Diapin Therapeutics LLC, priority 2011, dated 2014).

How the values were obtained:
[1] = Body weight of db/db mice with or without oral FTY720; assay type: in vivo, mouse; settings: FTY720-treated vs untreated group
Method: FIG. 2B. Time course of the body weight of db/db mice with or without oral FTY720. Open circle (∘), FTY720-untreated group; solid circle (●), pre-diabetic db/db mice (Fasting glucose<126 mg/dL) at six-week-old treated with 10 mg/kg FTY720. […]
Animals and Procedures—Five-week-old female db/db mice (BKS.Cg-m+/−Leprdb) were purchased from Jackson Laboratories (Bar Harbor, Me.). […] After 1 week, the fasting glucose levels of the 6-week-old mice were measured. […] Mice in the FTY720-treated group were fed 10 mg/kg of FTY720 daily by feeding tube and their food intake and body weight were measured twice a week. Fasting glucose levels were measured at the end of each week. […] After metabolic analysis, the pancreases were removed from the mice at 13 and 16 weeks of age for immunohistochemical analysis, quantitation of islet area, or islet isolation.

S1P1 = assay: S1P receptor expression in islets from db/db mice: S1P1; assay type: in vivo, mouse; settings: after FTY720 treatment of db/db mice
Description: (§1) FIG. 15. Expression of 4 FTY720-bound S1P receptors in the islets isolated from the db/db mice.
(§2) FTY720 is phosphorylated in vivo to form FTY720-P that binds S1P1, S1P3, S1P4, and S1P5 but not S1P2 (25). We determined the expression of these receptors in the islets isolated from the untreated and FTY720-treated db/db mice.

db/db mice = assay: Intraperitoneal glucose tolerance test; assay type: in vivo, mouse; settings: db/db mice fasted 16 h, i.p. 10% glucose 1 mg/g; treated vs untreated
Method: FIG. 5A. Intraperitoneal glucose tolerance test (GTT). The mice of both groups were fasted for 16 hours and intraperitoneally injected with 10% glucose (1 mg/g body weight). Glucose levels were then measured after 0, 30, 60, 90, 120 min by a Glucometer Elite (Bayer Corp., Elkhart, Ind.). Open circle (∘), FTY720-untreated group; solid circle (●), FTY720-treated group. *p<0.01.
For the glucose tolerance test, the mice were fasted for 16 h and intraperitoneally injected with 10% glucose (1 mg/g of body weight). Glucose levels were then measured after 0, 30, 60, 90, and 120 min by a Glucometer Elite (Bayer Corp., Elkhart, Ind.) (29). For the insulin tolerance test, the mice were fasted for 6 h and injected intraperitoneally with human regular insulin (0.55 units/kg) (Sigma). Tail blood samples were collected at 0, 30, 40, 60, 90, and 120 min for glucose measurement (30, 31).

S1P3 = assay: S1P receptor expression in islets from db/db mice: S1P3; assay type: in vivo, mouse; settings: after FTY720 treatment of db/db mice
Description: as §1, §2

pancreatic cancer cells = settings: concentrations identical to this study (10 mg/kg), reportedly; cited from earlier work
Bcl-xL = Bcl-xL mRNA levels in islets of db/db mice; assay type: in vivo, mouse; settings: islets from FTY720-treated db/db mice vs untreated
Method: FIG. 10B. Levels of Bcl-xL mRNA levels of the db/db mice with (+FTY720) or without FTY720 (−FTY720) treatment. *p=0.002
Islets were isolated from pancreases removed from the 13-week-old untreated and FTY720-treated db/db mice by Liberase (Roche Diagnostics) digestion, followed by discontinuous Ficoll gradient separation and manual stereomicroscopic selection to exclude contaminating tissues (30). Isolated islets (or INS-1 cells) were cultured in the medium (composed of RPMI 1640 medium supplemented with 10% fetal bovine serum, 2 mM L-glutamine, 1% sodium pyruvate, 50 μM β-mercaptoethanol, 100 units/ml of penicillin, and 100 μg/ml of streptomycin). For treatment of INS-1 cells, the cells were plated in RPMI medium overnight and changed to Hanks' balanced salt solution containing 2 mM glucose and 0.5% FBS overnight. Then the cells were treated with various conditions in the same medium for 24 hours.
To determine the mechanism of action (MOA) behind the increase in beta-cell mass observed in the treated mice, beta-cell survival was examined.

[2] = Observation of cancer formation during the study; assay type: in vivo, mouse; settings: during the course of this invention, 10 mg/kg
Description: There are several advantages of the present invention. First, FTY720 is a FDA approved medicine for the treatment of patients with relapsing multiple sclerosis (MS) and its safety profile has been well studied during the clinical trial for treatment of relapsing MS, including more than 4,500 patient years of experience, with some patients in their seventh year of treatment. Second, FTY720 is an orally taken therapy and easy to take by patients, compared with insulin and GLP-1 analog therapies that have to be injected into body either by healthcare professionals or by patients themselves. […] Finally, although FTY720 promotes beta-cell regeneration, the risk of tumorigenesis is low.

- S1P1 expression in islets (S1P1): significantly elevated
- S1P3 expression in islets (S1P3): significantly elevated
- cancer formation [2]: no cancer formation was observed
SMILES: CCCCCCCCc1ccc(CCC(N)(CO)CO)cc1 [FTY720, 2-amino-2-[2-(4-octylphenyl)ethyl]propane-1,3-diol]
- weight gain [1]: significantly higher
- glucose tolerance (db/db mice): significantly improved
- growth, migration, and invasion of pancreatic cancer cells (pancreatic cancer cells): inhibit
- Bcl-xL mRNA levels (Bcl-xL): significantly increased
